Literature values as cited in patent US6387904B2, “Method of treating glaucoma and ischemic retinopathy” (Pfizer INC, priority 1998, dated 2002).
Counter-ions that a name gives are not always drawn.

What was measured:
5-HT1A = target: T1, 5-HT1A (Homo sapiens, UniProt P08908); details: ligand [3H]-80H-DPAT; central nervous system tissue; mean ± spread (n)
T1 construct: host or cells: central nervous system tissue
T1 sequence (P08908 1-422): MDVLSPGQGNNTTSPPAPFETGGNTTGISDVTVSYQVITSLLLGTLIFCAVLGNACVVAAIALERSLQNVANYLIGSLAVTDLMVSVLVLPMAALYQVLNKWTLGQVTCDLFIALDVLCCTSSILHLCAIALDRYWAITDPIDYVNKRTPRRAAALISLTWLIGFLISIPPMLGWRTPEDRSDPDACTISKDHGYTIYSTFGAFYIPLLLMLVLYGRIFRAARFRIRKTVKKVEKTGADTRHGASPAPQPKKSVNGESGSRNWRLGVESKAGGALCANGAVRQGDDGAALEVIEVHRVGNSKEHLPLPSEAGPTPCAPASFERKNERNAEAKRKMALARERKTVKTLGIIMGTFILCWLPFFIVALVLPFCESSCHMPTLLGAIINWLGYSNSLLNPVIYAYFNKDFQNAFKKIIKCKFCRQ

DA reuptake = target: T2, DA reuptake (Homo sapiens, UniProt Q01959); details: neurotransmitter uptake inhibition; mean ± spread (n)
T2 construct: host or cells: central nervous system tissue

Norpinephrine reuptake = Norpinephrine reuptake (Homo sapiens, UniProt P23975); details: neurotransmitter uptake inhibition; mean ± spread (n)
Norpinephrine reuptake, sequence (P23975 whole entry): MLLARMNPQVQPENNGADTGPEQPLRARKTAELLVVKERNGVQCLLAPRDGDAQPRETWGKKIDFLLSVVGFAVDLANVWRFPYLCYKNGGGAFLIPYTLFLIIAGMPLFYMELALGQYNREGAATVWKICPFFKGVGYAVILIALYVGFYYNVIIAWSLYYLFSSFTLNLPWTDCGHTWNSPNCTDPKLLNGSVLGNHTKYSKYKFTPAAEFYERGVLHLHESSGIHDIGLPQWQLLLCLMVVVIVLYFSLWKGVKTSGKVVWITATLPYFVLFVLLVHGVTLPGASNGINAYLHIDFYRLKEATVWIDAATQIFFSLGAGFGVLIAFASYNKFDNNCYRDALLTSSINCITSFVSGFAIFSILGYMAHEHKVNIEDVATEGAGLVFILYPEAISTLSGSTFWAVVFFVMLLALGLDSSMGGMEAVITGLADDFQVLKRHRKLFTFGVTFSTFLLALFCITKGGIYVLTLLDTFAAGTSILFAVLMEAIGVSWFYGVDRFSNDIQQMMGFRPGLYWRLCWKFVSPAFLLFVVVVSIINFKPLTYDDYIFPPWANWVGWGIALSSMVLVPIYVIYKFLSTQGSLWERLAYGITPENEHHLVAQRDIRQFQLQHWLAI

T2 sequence (Q01959 whole entry): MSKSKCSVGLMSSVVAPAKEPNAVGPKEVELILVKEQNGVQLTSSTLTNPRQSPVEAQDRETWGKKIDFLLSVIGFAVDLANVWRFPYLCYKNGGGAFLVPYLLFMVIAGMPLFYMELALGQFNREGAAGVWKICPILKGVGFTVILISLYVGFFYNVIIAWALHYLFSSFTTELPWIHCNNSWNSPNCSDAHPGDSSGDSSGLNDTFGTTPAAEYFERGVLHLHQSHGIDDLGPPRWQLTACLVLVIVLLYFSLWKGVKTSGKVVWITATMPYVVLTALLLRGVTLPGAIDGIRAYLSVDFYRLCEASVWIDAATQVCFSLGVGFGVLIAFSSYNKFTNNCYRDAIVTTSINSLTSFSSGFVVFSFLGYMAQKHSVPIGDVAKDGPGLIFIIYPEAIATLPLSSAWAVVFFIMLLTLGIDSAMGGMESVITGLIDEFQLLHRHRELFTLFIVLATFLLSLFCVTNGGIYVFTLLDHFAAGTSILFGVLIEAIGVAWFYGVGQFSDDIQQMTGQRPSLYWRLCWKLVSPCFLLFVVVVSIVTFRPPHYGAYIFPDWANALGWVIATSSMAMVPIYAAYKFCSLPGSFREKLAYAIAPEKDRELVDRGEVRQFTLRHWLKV

O=C1Cc2cc(CCN3CCN(c4nsc5ccccc45)CC3)c(Cl)cc2N1 [ziprasidone, 5-(2-(4-(1,2-benzisothiazol-3-yl)piperazinyl)ethyl)-6-chlorooxindole hydrochloride]
pKi 5-HT1A (5-HT1A): 8.47 ± 0.05 (4) | pKi Neurotransmiter Reuptake Blockade: DA (DA reuptake): 6.58 ± 0.02 (3) | pKi Neurotransmiter Reuptake Blockade: Norpinephrine (Norpinephrine reuptake): 7.30 ± 0.01 (4)
